Measured values published in PMC8009478, “Novel Curcumin-Diethyl Fumarate Hybrid as a Dualistic GSK-3β Inhibitor/Nrf2 Inducer for the Treatment of Parkinson’s Disease” (ACS Chemical Neuroscience, 2020).
Several values for one entry are separate records, joined by “and”; a condition that tells them apart may be missing. Equal values may be shown once.

Key:
[1] = tested on: Nrf2/ARE; test: Nrf2/ARE binding activity, ELISA (TransAM Nrf2 Kit); format: cell-based, human; conditions: 6 h; for Nrf2/ARE binding activity: 5 μM; for Nrf2/ARE effect compared to DMF: compounds and DMF at 5 μM
Method: (§1) In light of these findings, 4 and 5 emerged as the most promising to be further studied regarding their effect on the Nrf2/ARE pathway. […] The maximum ratio between nuclear and cytosolic Nrf2 levels was detected after a 3 h treatment for both compounds, while a slight reduction was observed after 6 h.
(§2) Figure 5 Effects of compounds 4 and 5 on the Nrf2/ARE signaling pathway (A and B) and NQO1 gene expression (C) in SH-SY5Y cells. (A) Cells were treated with compounds 4 and 5 (5 μM) for different times (1, 3, and 6 h). Translocation of Nrf2 from the cytosol to the nucleus was evaluated by Western blotting. Data are expressed as a ratio between nuclear Nrf2 and cytoplasmic Nrf2 levels and reported as mean ± SEM of at least three independent experiments. (B) Cells were treated with compounds 4 and 5 (5 μM) and DMF (5 μM) for 6 h. The Nrf2/ARE binding activity was determined by an ELISA assay. Results are expressed as fold increase versus untreated cells and reported as mean ± SEM of at least three independent experiments (** p < 0.01 and * p < 0.05 versus untreated cells at the t-test). (C) Cells were treated with compounds 4 and 5 (5 μM) for different times (6, 12, and 24 h). The NQO1 expression was determined by RT-PCR. Results are expressed as the relative normalized expression and reported as mean ± SEM of at least three independent experiments (*** p < 0.001 versus untreated cells at one-way ANOVA with the Dunnett post hoc test).
The levels of active Nrf2 protein were determined on the nuclear extracts (10 μg, see above) by using the DNA-binding ELISA TransAM Nrf2 Kit (Active Motif), according to the manufacturer’s guidelines. In detail, the kit comprises a primary antibody able to recognize an epitope on Nrf2 protein upon ARE binding. In the treated cells, the amount of active Nrf2 protein is expressed as a fold increase in comparison to the corresponding untreated cells.

[2] = tested on: NQO1; test: NQO1 gene expression by RT-PCR; format: cell-based, human; conditions: 5 μM, after 12 and 24 h of treatment
Method: as §2
To further confirm the increase in Nrf2 transcriptional activity upon treatment with 4 and 5, the mRNA levels of NQO1, a Nrf2 target gene, were evaluated in SH-SY5Y cells (Figure 5C). […]

[3] = tested on: Nrf2; test: Nrf2 nuclear translocation by Western blotting; format: cell-based, human; conditions: 5 μM; for nuclear translocation of Nrf2: 1, 3 and 6 h; for treatment time of maximum ratio between nuclear and cytosolic Nrf2 levels: 1, 3 and 6 h tested
Method: as §1, §2

[4] = tested on: TagGFP2-α-syn SH-SY5Y cells; test: α-syn aggregates induced by 6-OHDA, fluorescence microscopy; format: cell-based, human; conditions: 5 μM for 24 h, then 6-OHDA 100 μM for 2 h
Method: Assessment of the α-syn aggregate formation was performed to corroborate the above results. TagGFP2-α-syn SH-SY5Y cells were treated for 24 h with 5 μM of 4 and 5 and then with 100 μM of 6-OHDA. After a 2 h incubation, the presence of α-syn aggregates was visualized by fluorescence microscopy analysis and quantified (Figure 7).
Figure 7 Effects of compounds 4 and 5 on α-syn aggregates induced by 6-OHDA in TagGFP2-α-syn SH-SY5Y cells. Cells were treated with compounds 4 and 5 (5 μM, for 24 h) and then with 6-OHDA (100 μM, for 2 h). At the end of incubation, the α-syn aggregates level was detected by fluorescence microscope. (A) Representative images of α-syn aggregates. (B) Quantification of the α-syn aggregates level. Data are expressed as mean fluorescence intensity ± SEM of at least three independent experiments (§§ p < 0.01 vs untreated cells, * p < 0.05 vs cells treated with 6-OHDA at one-way ANOVA with the Bonferroni post hoc test). Scale bars: 50 μm.
At the end of incubation, the aggregation of α-synuclein was detected using an inverted fluorescent microscope (Eclipse Ti-E, Nikon Instruments Spa, Florence, Italy). The intensity of fluorescence was directly proportional to the aggregation of α-synuclein. Data are expressed as arbitrary units of fluorescence.

[5] = target: GSK-3β (Homo sapiens, UniProt P49841); test: GSK-3β inhibition, luminescent kinase assay (Kinase-Glo); conditions: for IC50: GSK-3β inhibition IC50 (μM) ± SEM, human recombinant enzyme, luminescence method
Method: A kinetic study was performed in which the concentrations of both ATP and tested compounds were varied, while the concentration of the substrate was kept constant.
GSK-3β inhibition . Kinase-Glo assays (Promega Biotech Iberica, SL) were performed in assay buffer using
black 96-well plates. In a typical assay, 10 µl (10 µM) of test compound (dissolved in DMSO at 1 mM concentration and diluted in advance in assa y buffer to the desired concentration) and 10 µL (20 ng) of
enzyme were added to each well followed by 20 µl of assay buffer containing 50 µM substrate and 2 µM ATP.
After 30 -min incu bation at 30 °C
the enzymatic reaction was stopped with 40 µL of Kinase -Glo reagent. Glow -type luminescence was recorded
after 10 min using a FLUOstar Optima (BMG Labtechnologies GmbH, Offenburg Germany) multimode reader.
The activity is proportional to th e difference in the total and consumed ATP. The inhibitory activities were
calculated on the basis of maximal activities measured in the absence of inhibitor. The IC 50 was defined as the concentration of each compound that reduces a 50 % the enzymatic activity with respect to that without
inhibitors. Five different concentrations by duplicate were used to determine the dose/response curve.

[6] = tested on: SH-SY5Y cells; test: t-BuOOH-induced intracellular ROS formation (H2DCF-DA probe); format: cell-based, human; conditions: 5 μM for 24 h, then t-BuOOH 100 μM for 30 min
From the text: Oxidative stress represents a remarkable pathological feature in NDDs; it is the consequence of an imbalance between the formation of reactive radical species, among others ROS, and the function of many defense antioxidant enzymes. Initially, the potential of compounds 4–7 as indirect antioxidants was investigated[31] by assessing their capability to protect from oxidative stress through prevention of ROS formation upon exposure to tert-butyl hydroperoxide (t-BuOOH). In detail, SH-SY5Y cells were first chronically treated for 24 h (the time necessary to activate the endogenous antioxidant system) with 4–7 (5 μM) and then exposed to 100 μM of t-BuOOH for 30 min; DMF (5 and 10 μM) was employed as the reference compound. Then, the intracellular ROS formation was detected by fluorescent probe 2′-7′-dichlorodihydrofluorescein diacetate (H2DCF-DA).
Figure 3 Antioxidant activity of compounds 4–7 and DMF against t-BuOOH-induced ROS formation in SH-SY5Y cells. Cells were treated with compounds 4–7 (5 μM) and DMF (5 and 10 μM) for 24 h and then with t-BuOOH (100 μM) for 30 min. At the end of treatment, the ROS formation was evaluated by probe H2DCF-DA. Results are expressed as mean ± SEM of at least three independent experiments (* p < 0.05 and ** p < 0.01 vs cells treated with t-BuOOH at one-way ANOVA with the Dunnett post hoc test).
ROS formation was evaluated by using the fluorescent probe H2DCF-DA, as previously described.[43]

GSK-3β, sequence (P49841 whole entry): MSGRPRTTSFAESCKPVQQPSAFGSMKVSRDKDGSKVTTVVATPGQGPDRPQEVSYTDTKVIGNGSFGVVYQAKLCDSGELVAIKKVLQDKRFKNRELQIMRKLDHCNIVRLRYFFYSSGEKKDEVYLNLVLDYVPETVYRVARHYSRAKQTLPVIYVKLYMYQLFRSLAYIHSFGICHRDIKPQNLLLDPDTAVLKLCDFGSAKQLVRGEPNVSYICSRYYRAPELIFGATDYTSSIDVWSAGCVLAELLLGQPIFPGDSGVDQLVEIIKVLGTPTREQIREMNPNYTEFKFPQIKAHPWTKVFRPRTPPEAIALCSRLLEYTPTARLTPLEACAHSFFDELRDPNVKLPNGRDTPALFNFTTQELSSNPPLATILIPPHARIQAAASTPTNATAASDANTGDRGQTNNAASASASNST

| Nrf2/ARE binding activity [1] | Nrf2/ARE effect compared to DMF [1] | IC50 [5] | inhibition at 10 µM ([5]; read-out: GSK-3β inhibition, inhibition (%)) | Structure (SMILES) | NQO1 mRNA levels [2] | nuclear translocation of Nrf2 [3] | treatment time of maximum ratio between nuclear and cytosolic Nrf2 levels [3] | levels of α-syn aggregates elicited by 6-OHDA [4] | t-BuOOH-induced intracellular ROS formation [6] |
| --- | --- | --- | --- | --- | --- | --- | --- | --- | --- |
| increase in Nrf2/ARE binding activity | superior effects to DMF | 8.4 µM and 8.39 µM |  | CCOC(=O)/C=C/C(C(=O)/C=C/c1ccc(OC)cc1)=C(O)\C=C\c1ccc(OCc2ccccc2)cc1 [Compound 5, Ethyl (2E,4Z,6E)-7-(4-(Benzyloxy)phenyl)-5-hydroxy-4-((E)-3-(4-methoxyphenyl)acryloyl)hepta-2,4,6-trienoate] | significant ability to increase NQO1 mRNA levels | induce the nuclear translocation of Nrf2 | 3 h | significantly decrease the levels of toxic α-syn aggregates | significant reduction |
| increase in Nrf2/ARE binding activity | superior effects to DMF | > 10 µM | 40% | CCOC(=O)/C=C/C(C(=O)/C=C/c1ccc(OC)cc1)=C(O)\C=C\c1ccc(OC)cc1 [Compound 4, Ethyl (2E,4Z,6E)-5-Hydroxy-7-(4-methoxyphenyl)-4-((E)-3-(4-methoxyphenyl)acryloyl)hepta-2,4,6-trienoate] | significant ability to increase NQO1 mRNA levels | induce the nuclear translocation of Nrf2 | 3 h | significantly decrease the levels of toxic α-syn aggregates | significant reduction |
